Measured values reported in ChEMBL document CHEMBL1157432, “Effect of linkage geometry on biological activity in thiourea- and guanidine-substituted acridines and platinum-acridines” (Bioorg Med Chem Lett, 2008).

Columns and labels:
HL-60 = experiment: Cytotoxicity against human HL60 cells after 72 hrs by MTS method; type: functional, cell-based; settings: HL-60, 72 h
NCI-H460 = experiment: Cytotoxicity against human NCI-H460 cells after 72 hrs by MTS method; type: functional, cell-based; settings: NCI-H460, 72 h
[1] = Dissociation constant, pKa of the compound; type: physicochemical

Row | Compound | IC50 (HL-60) [µM] | IC50 (NCI-H460) [µM] | pKa [1]
1 | CNC(=N)N(C)CCNC(=O)c1cccc2cc3ccccc3nc12 | 8.4 | > 100 | –
2 | CNC(=S)N(C)CCNC(=O)c1cccc2cc3ccccc3nc12 | > 100 | 30.9 | –
3 | CNC(=N)N(C)CCNc1c2ccccc2nc2ccccc12 | 79.7 | 10.3 | 9
4 | CNC(=S)N(C)CCNc1c2ccccc2nc2ccccc12 [ACRAMTU] | – | – | 9
